Paper PMC11765512 (International Journal of Molecular Sciences, 2025)

Legend:
[1] = test system: SARS-CoV-2 S-mediated cell–cell fusion (HEK-293T/SARS-CoV-2-S/EGFP with Vero); type: cell-based
[2] = molecular target: SARS-CoV-2 S-RBD (Severe acute respiratory syndrome coronavirus 2, UniProt P0DTC2); experiment: biochemical; type: binding
[3] = molecular target: S-RBD+ACE2 complex (Severe acute respiratory syndrome coronavirus 2, UniProt P0DTC2); parameters: species or system SARS-CoV-2
[4] = test system: SARS-CoV-2 pseudovirus entry into HEK-293T-hACE2 cells; experiment: microbe, parasite or virus in culture; type: cell-based
[5] = molecular target: ACE2-S-RBD interaction (Severe acute respiratory syndrome coronavirus 2, UniProt P0DTC2); type: binding, SARS-CoV-2
[6] = test system: AH109 (pAD-S-RBD+pBD-ACE2) cells; experiment: β-gal activity, ONPG assay in Y2H strain; type: cell-based, yeast
Protocol: The ONPG assay was conducted following the protocol of the β-gal activity quantitative detection kit (GENMED S[…]. USA, Arlington, MA, USA). The principle is based on the chemical reaction that the colorless substrate ONPG can be hydrolyzed by β-gal to generate o-nitrophenol (ONP) with a bright-yellow appearance. Briefly, cells were pelleted in Eppendorf® tubes and resuspended in Z-buffer. Chloroform and 0.2% SDS were added to the cells in the tubes and mixed by briefly vortexing, followed by incubation at 28 °C for 5 min. Next, the ONPG solution was added for further incubation. The reaction was terminated after 10 min for p53-T and after 25 min for all other samples by the addition of chilled Na2CO3. Absorbance was recorded at 420 nm. Results were normalized against the cell density and incubation time using the following formula: U=OD420sample−OD420blank/OD600×t×V
Here, ‘t’ represents the incubation time duration, measured in min, while ‘V’ denotes the volume of the cell cultures utilized for the assay, expressed in mL. The experiments were repeated three times.

[7] = test system: Vero cells; experiment: CCK-8 cytotoxicity, Vero; type: cell-based, African green monkey; conditions: for Survival Rate (%) Vero: 50 μg/mL, 48 h, CCK-8
Protocol: (§1) African green monkey kidney cells (Vero), Human Hepatocellular Carcinoma Cells (Huh-7), and Human Embryonic Kidney 293T (HEK-293T) cells were maintained in our laboratory. Cells were cultured in Dulbecco’s Modified Eagle’s Medium (DMEM, Hyclone, Logan, UT, USA) containing 10% fetal bovine serum (FBS, Gibco, Waltham, MA, USA) at 37 °C under 5% CO2 in a humidified environment.
(§2) The cytotoxicity of compounds against Vero, Huh-7, and HEK-293T cells was detected using the Cell Counting Kit-8. Briefly, the target cells were cultured at a density of 8000 cells per well in a 96-well plate containing DMEM enriched with 10% FBS. The cells were allowed to attach overnight, and the medium was replaced with a fresh serum-free DMEM containing 50 µg/mL of compounds. The cell viability was measured at 48 h post-drug treatment by the addition of the CCK-8 reagent (Biosharp, Hefei, Anhui, China), followed by incubation for 4 h. Finally, the absorbance of the cell culture was measured at 450 nm using a microplate reader (PerkinElmer, Waltham, MA, USA). The background absorbance of the blank media was also measured and subtracted from the sample reading. This experiment was repeated 3 times for each group. The obtained results were normalized to that of the control sample, which represented a cell viability of 100%.

[8] = test system: HEK-293T cells; experiment: CCK-8 cytotoxicity, HEK-293T; type: cell-based, Human; conditions: for Survival Rate (%) HEK-293T: 50 μg/mL, 48 h, CCK-8
Protocol: as §1, §2

[9] = molecular target: ACE2 (Homo sapiens, UniProt Q9BYF1); experiment: SPR binding to immobilised ACE2
[10] = test system: Huh-7 cells; experiment: CCK-8 cytotoxicity, Huh-7; type: cell-based, Human; conditions: for Survival Rate (%) Huh-7: 50 μg/mL, 48 h, CCK-8
Protocol: as §1, §2

[11] = molecular target: T1, AH109 (pAD-T+pBD-53) (UniProt P02340+P03070); experiment: Y2H growth inhibition (MIC) of control strain AH109 (pAD-T+pBD-53); type: cell-based, yeast; conditions: SD/-Leu/-Trp/-His/-Ade dropout medium, 48 h
T1 construct: expressed in transfected cells; host or cells: yeast reporter strain AH109 carrying pAD-T and pBD-53
Protocol: The Chemdiv screening compound library used for HTS assay in this research is a combination of synthetic compounds from Enamine (Kyiv, Ukraine) and Life Chemicals Inc. (Burlington, ON, Canada), which can be purchased from Shanghai Topscience Biotechnology Co., Ltd., China. The compounds were stocked at 10 mg/mL in DMSO and used for the screening assays as described. […] Next, 199 μL of the diluted culture and 1 μL of tested compounds (the final concentration was 50 μg/mL) or DMSO were added into each well. […] The final concentrations of the compounds ranged from 100 μg/mL to 0.78 μg/mL with 2-fold dilutions between concentrations.

[12] = Severe acute respiratory syndrome-related coronavirus, 18 h, read-out: Inhibition rate of pseudovirus entry

T1 sequence (P03070 87-708 limits assumed): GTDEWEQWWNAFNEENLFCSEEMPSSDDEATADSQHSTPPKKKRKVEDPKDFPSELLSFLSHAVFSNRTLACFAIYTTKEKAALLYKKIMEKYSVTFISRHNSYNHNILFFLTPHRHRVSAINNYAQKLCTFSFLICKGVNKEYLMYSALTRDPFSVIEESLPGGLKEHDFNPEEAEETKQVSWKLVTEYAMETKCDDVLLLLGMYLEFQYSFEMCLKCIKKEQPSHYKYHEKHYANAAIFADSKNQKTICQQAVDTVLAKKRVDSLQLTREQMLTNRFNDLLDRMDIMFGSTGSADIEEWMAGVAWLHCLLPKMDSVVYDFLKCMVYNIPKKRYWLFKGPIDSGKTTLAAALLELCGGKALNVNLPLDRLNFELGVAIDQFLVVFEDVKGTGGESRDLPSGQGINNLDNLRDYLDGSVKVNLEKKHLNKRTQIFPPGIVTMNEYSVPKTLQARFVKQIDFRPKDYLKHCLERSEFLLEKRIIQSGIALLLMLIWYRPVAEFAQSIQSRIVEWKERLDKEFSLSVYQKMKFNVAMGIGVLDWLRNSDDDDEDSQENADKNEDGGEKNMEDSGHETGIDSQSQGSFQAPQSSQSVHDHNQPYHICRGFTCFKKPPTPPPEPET
T1 sequence (P02340 72-390 limits assumed): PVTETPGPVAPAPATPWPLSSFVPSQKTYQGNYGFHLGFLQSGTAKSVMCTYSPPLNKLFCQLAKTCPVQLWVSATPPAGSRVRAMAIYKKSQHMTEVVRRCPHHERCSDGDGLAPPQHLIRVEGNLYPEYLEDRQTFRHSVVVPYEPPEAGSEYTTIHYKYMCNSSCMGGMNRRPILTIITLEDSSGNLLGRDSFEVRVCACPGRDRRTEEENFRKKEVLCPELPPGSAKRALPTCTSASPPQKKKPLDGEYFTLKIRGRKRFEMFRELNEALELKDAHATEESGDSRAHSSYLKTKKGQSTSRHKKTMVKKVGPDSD
Chain of ACE2 (Q9BYF1 18-805): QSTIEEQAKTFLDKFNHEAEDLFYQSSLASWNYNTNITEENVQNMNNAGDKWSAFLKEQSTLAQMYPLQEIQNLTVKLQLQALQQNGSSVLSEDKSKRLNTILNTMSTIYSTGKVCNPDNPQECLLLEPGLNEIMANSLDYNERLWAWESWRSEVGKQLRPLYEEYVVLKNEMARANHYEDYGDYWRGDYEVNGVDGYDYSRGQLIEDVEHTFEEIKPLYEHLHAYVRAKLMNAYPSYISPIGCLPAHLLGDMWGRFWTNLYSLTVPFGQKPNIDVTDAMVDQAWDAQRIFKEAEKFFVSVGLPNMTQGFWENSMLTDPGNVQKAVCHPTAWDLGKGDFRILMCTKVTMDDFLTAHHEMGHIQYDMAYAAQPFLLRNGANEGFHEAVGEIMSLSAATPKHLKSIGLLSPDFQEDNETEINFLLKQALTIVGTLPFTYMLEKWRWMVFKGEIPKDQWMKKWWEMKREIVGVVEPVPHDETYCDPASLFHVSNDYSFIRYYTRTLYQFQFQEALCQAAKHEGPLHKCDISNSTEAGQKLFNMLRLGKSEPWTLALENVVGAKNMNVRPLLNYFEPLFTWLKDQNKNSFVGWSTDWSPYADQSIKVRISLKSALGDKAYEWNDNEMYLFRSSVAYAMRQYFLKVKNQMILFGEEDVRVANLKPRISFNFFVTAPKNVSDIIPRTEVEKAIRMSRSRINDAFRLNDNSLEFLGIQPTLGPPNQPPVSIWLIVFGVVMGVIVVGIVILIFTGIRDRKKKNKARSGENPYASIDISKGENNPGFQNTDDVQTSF

Structure (SMILES): O=C(c1ccc(N2CCCCS2(=O)=O)cc1)N1CCN(C(=O)c2ccco2)CC1 [IMB-1C]
- Syncytium formation [1]: somewhat blocked in a dose-dependent manner
- Kd [2]: 1.06 µM
- Decrease of β-fold content [3]: 9.46%
- Increase of α-helix content [3]: 6.85%
- Secondary Structure Content (%) Random [3]: 32.93%
- Secondary Structure Content (%) α-Helix [3]: 13.12%
- Secondary Structure Content (%) β-Fold [3]: 42.07%
- Secondary Structure Content (%) β-Turn [3]: 15.97%
- Inhibition of pseudovirus entry (in words) [4]: concentration-dependent inhibition
- inhibition at 10 µg/mL [4, 12]: 42.5%
- inhibition at 20 µg/mL [4, 12]: 68.1%
- SPR signal of ACE2 binding to S-RBD [5]: the signal value decreased
- Concentration showing clear inhibition of β-gal activity [6]: 0.39 µg/mL
- Survival Rate (%) Vero [7]: 105%
- Effect on cell proliferation of Vero ([7]; up to 50 µg/mL for 48 h): did not affect
- Survival Rate (%) HEK-293T [8]: 88%
- Effect on cell proliferation of HEK-293T ([8]; up to 50 µg/mL for 48 h): did not affect
- Kd [9]: 1.11 µM
- Survival Rate (%) Huh-7 [10]: 122%
- Effect on cell proliferation of Huh-7 ([10]; up to 50 µg/mL for 48 h): did not affect
- MIC against AH109 (pAD-T+pBD-53) [11]: 3.125 μg/mL

Structure (SMILES): Cc1ccc(N(Sc2ccc(Cl)cc2)C2C=CS(=O)(=O)C2)cc1 (stereo not shown) [IMB-4A]
- Inhibition of pseudovirus entry (in words) [4]: could not be observed
- Concentration showing clear inhibition of β-gal activity [6]: 6.25 µg/mL
- Survival Rate (%) Vero [7]: 71%
- Survival Rate (%) HEK-293T [8]: 18%
- Survival Rate (%) Huh-7 [10]: 25%
- MIC against AH109 (pAD-T+pBD-53) [11]: 12.5 μg/mL

Structure (SMILES): CC(C)CCC[C@@H](C)[C@H]1CC[C@H]2[C@@H]3CC[C@H]4C[C@@H](O[C@@H]5O[C@H](COS(=O)(=O)O)[C@@H](O[C@H]6O[C@H](COS(=O)(=O)O)[C@@H](O[C@H]7O[C@H](COS(=O)(=O)O)[C@@H](O[C@H]8O[C@H](COS(=O)(=O)O)[C@@H](OS(=O)(=O)O)[C@H](OS(=O)(=O)O)[C@H]8OS(=O)(=O)O)[C@H](OS(=O)(=O)O)[C@H]7OS(=O)(=O)O)[C@H](OS(=O)(=O)O)[C@H]6OS(=O)(=O)O)[C@H](OS(=O)(=O)O)[C@H]5OS(=O)(=O)O)CC[C@]4(C)[C@H]3CC[C@]12C [Pixatimod, reference compound]
- MIC against AH109 (pAD-T+pBD-53) [11]: 6.25 μg/mL
